Assay results from US9834558B2, “Substituted bridged urea analogs as sirtuin modulators” (GLAXOSMITHKLINE LLC, priority 2013, dated 2017).
Structures can show the parent of a compound that is named as a salt.

Assays:
[1] = molecular target: T1, full-length hSIRT1 wild-type (Homo sapiens, UniProt Q96EB6); experiment: SIRT1 activation and inhibition assays (OAcADPr mass spectrometry assay), wild-type enzyme; assay type: biochemical
T1 construct: Full-length human SIRT1 (hSIRT1) proteins were expressed with a C-terminal His6 tag; His6 (C); made in house
T1 sequence (Q96EB6 1-747): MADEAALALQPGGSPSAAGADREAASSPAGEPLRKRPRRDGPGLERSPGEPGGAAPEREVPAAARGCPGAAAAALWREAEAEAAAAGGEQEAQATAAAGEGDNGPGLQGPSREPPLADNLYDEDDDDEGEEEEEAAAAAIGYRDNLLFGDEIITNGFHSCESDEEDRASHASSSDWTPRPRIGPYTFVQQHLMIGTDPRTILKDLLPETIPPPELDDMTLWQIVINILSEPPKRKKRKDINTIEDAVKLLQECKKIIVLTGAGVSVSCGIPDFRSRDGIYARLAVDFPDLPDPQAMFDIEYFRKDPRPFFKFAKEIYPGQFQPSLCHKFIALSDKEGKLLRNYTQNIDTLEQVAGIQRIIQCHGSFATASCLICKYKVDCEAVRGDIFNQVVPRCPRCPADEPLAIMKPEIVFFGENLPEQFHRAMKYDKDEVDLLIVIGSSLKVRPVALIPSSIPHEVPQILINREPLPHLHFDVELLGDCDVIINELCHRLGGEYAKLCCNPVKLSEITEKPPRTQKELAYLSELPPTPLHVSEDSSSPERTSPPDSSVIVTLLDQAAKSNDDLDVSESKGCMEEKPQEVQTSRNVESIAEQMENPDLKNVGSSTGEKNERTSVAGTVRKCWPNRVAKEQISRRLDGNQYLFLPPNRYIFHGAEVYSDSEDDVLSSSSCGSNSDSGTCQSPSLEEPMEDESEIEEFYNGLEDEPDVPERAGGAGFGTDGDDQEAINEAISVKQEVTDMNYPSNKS
Experimental: Final concentrations of the PNC1/GDH coupling system components used were 20 units/mL bovine GDH (Sigma-Aldrich), 1 uM yeast PNC1, 3.4 mM a-ketoglutarate, and 220 μM NADH or NADPH. An extinction coefficient of 6.22 mM^−1 cm^−1 and a pathlength of 0.81 cm was used to convert the absorbance at 340 nm to product concentration for the 150 uL reactions used.
Substrate KM determinations were performed by varying one substrate concentration at a fixed, saturating concentration of the second substrate. SIRT1 activation and inhibition assays were run in reaction buffer with 0.05% BSA at 25° C. and analyzed using the OAcADPr assay. Enzyme and compound were pre-incubated for 20 minutes before addition of substrates. […] The dose-dependence of five compounds was tested and the fold-activation data were described by Eq. 1
[formula] where vx/v0 is the ratio of the reaction rate in the presence (vx) versus absence (v0) of activator (X), RVmax is the relative velocity at infinite activator concentration, EC50 is the concentration of activator required to produce one-half RVmax and b is the minimum value of vx/v0.

SIRT1 = molecular target: T2, SIRT1 (Homo sapiens, UniProt Q96EB6); experiment: Trp mass spectrometry assay of SIRT1 activation; assay type: biochemical; conditions: Trp peptide assay; for TRP Activity (EC1.5): EC1.5 = concentration that results in 150% activation of SIRT1; for Emax / TRP MAX RESP (percent maximum fold activation): maximum activity relative to control (100%); for Emax: read-out: TRP MAX RESP (percent maximum fold activation)
T2 sequence (Q96EB6 1-747): T1 sequence (Q96EB6 1-747)
Outline: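 N-terminal His-tagged human SIRT1 (10 nM, E. coli BL21(DE3)) with 0.5 μM Ac-RHKK(Ac)W-NH2 peptide and 120 μM βNAD+, 25 min at 25 °C in HEPES pH 7.5, formic acid stop. OAADPR or deacetylated peptide quantified by mass spectrometry; EC1.5 (50% activity increase over control) and Percent Maximum Activation reported.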

Compound | RVmax fold shift [1] | TRP Activity (EC1.5) (SIRT1) | Emax (SIRT1) | TRP MAX RESP (percent maximum fold activation) (SIRT1) | TRP Activity (EC1.5) (SIRT1; hydrochloride)
O=C(Nc1ccccn1)N1c2nc(-c3cccc(C(F)(F)F)c3)ccc2N2CC[C@H]1C2 [Example 7] | 1.00 |  |  |  | 
Cc1cnc2c(NC(=O)N3c4nc(-c5cccc(C(F)(F)F)c5)ccc4N4CC[C@H]3C4)cccc2n1 [Example 8] | 1.00 |  |  |  | 
O=C(Nc1ccc(F)cn1)N1c2nc(N3CCC[C@H](C(F)(F)F)C3)ccc2N2CCC[C@H]1C2 [drawing 1177, (9S)-N-(5-fluoropyridin-2-yl)-5-[(3S)-3-(trifluoromethyl)piperidin-1-yl]-1,6,8-triazatricyclo[7.3.1.0 {2,7}]trideca-2(7),3,5-triene-8-carboxamide] |  | A (A (EC1.5<1 μM)) | > 150% |  | 
O=C(Nc1ccc(F)cn1)N1c2nc(N3CCC[C@H](C(F)(F)F)C3)ccc2N2CCC[C@H]1C2 [drawing 1208, (9S)-N-(5-fluoropyridin-2-yl)-5-[(3S)-3-(trifluoromethyl)piperidin-1-yl]-1,6,8-triazatricyclo[7.3.1.0 {2,7}]trideca-2(7),3,5-triene-8-carboxamide] |  | B (B (EC1.5 1-25 μM)) |  | A (A (Fold activation ≧150%)) | 
O=C(Nc1ccccn1)N1c2nc(N3CC[C@H](C(F)(F)F)C3)ccc2N2CCC[C@H]1C2 [drawing 1225, (9S)-N-(pyridin-2-yl)-5-[(3S)-3-(trifluoromethyl)pyrrolidin-1-yl]-1,6,8-triazatricyclo[7.3.1.0 {2,7}]trideca-2(7),3,5-triene-8-carboxamide hydrochloride] |  |  | > 150% |  | A (A (EC1.5<1 μM))
O=C(Nc1cnccn1)N1c2nc(N3CCO[C@H](C(F)(F)F)C3)ccc2N2CC[C@H]1C2 [drawing 1226, (9S)-N-(pyrazin-2-yl)-5-[(2S)-2-(trifluoromethyl)morpholin-4-yl]-1,6,8-triazatricyclo[7.2.1.0 {2,7}]dodeca-2(7),3,5-triene-8-carboxamide] |  | B (B (EC1.5 1-25 μM)) | > 150% |  | 
O=C(Nc1cnccn1)N1c2nc(N3CCO[C@H](C(F)(F)F)C3)ccc2N2CC[C@H]1C2 [drawing 1227, (9S)-N-(pyrazin-2-yl)-5-[(2S)-2-(trifluoromethyl)morpholin-4-yl]-1,6,8-triazatricyclo[7.2.1.0 {2,7}]dodeca-2(7),3,5-triene-8-carboxamide] |  | A (A (EC1.5<1 μM)) |  | A (A (Fold activation ≧150%)) | 
COC(=O)CNC(=O)c1ccc2c(n1)N(C(=O)Nc1ccccn1)[C@H]1CCN2C1 [methyl 2-{[(9S)-8-[(pyridin-2-yl)carbamoyl]-1,6,8-triazatricyclo[7.2.1.0^{2,7}]dodeca-2(7),3,5-trien-5-yl]formamido}acetate] |  | B (B (EC1.5 1-25 μM)) | > 150% |  | 
COC(=O)c1cc(-c2ccc3c(n2)N(C(=O)Nc2cnccn2)[C@H]2CCN3C2)ccn1 [methyl 4-[(9S)-8-[(pyrazin-2-yl)carbamoyl]-1,6,8-triazatricyclo[7.2.1.0 {2,7}]dodeca-2(7),3,5-trien-5-yl]pyridine-2-carboxylate] |  | B (B (EC1.5 1-25 μM)) | > 150% |  | 
